Source: patent US8835467B2, “SIR2 regulation” (Albert Einstein College of Medicine of Yeshiva University, priority 2003, dated 2014)

Assays:
[1] = tested on: Sir2-dependent transcriptional silencing at the silent mating-type loci (HMR, HML); test: Silent mating-type locus reporter silencing, spot assay; assay type: cell-based, yeast
Description: (§1) The photographs were taken after 2 to 3 days incubation. […] Isogenic strains UCC4562 (DOT1) and UCC4554 (dot1Δ) (Singer et al., 1998) are shown in each panel (top and bottom rows, respectively). […] The phenotype of strain CCFY10028 (top row) is compared to an isogenic sir2 derivative (bottom row). The sir2 deletion strain was generated by PCR-mediated gene disruption using a Nat-MX selectable marker (Tong et al., 2004).
(§2) The deletion strains were generated by PCR-mediated gene disruption using a Nat-MX selectable marker (Tong et al., 2004). Silencing at TEL-VR::URA3 is reported by survival on FOA-containing media and at HMR::TRP1 is detected by reduced growth on media lacking tryptophan.
The effect of isonicotinamide on Sir2 activity at the silent mating-type loci was measured in an HMR: TRP1 strain by growth on medium lacking tryptophan (FIG. 8b). Silencing of TRP1 decreases growth on Trp^− media.

[2] = biological target: Yeast Sir2 (Saccharomyces cerevisiae, UniProt P06700); test: Sir2 catalyzed base exchange with H4 N-terminal peptide; assay type: biochemical
Sequence of Yeast Sir2 (P06700 whole entry): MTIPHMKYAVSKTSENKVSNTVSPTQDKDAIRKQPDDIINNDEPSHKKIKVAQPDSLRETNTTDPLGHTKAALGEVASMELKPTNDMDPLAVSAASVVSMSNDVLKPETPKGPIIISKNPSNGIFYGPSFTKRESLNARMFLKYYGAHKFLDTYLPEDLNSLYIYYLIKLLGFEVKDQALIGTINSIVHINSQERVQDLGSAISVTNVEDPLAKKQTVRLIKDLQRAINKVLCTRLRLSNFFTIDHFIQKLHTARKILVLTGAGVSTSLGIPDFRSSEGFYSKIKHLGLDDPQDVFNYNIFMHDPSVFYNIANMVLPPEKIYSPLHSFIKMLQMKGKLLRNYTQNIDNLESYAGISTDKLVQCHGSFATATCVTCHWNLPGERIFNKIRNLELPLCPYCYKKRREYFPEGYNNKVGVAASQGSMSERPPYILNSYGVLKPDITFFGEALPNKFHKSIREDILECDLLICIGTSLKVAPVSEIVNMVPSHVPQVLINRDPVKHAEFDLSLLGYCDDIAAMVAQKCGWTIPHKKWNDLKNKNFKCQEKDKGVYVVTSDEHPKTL
Description: Measurements were performed by methods described in Sauve and Schramm (2003) with the H4N-terminal peptide (AGG(AcK)GG(AcK)GMG(AcK)VGA(AcK)RHSC) (Imai et al., 2000) as substrate.

[3] = biological target: T1, Yeast SIR2p (Saccharomyces cerevisiae, UniProt P06700); test: SIR2 nicotinamide base-exchange assay (p53 peptide, HPLC/14C); assay type: biochemical; details: pH 7.6; read-out: Inhibition of exchange rate (%) yeast
T1 construct: made in house
T1 sequence (P06700 whole entry): as above
Description: (§3) After 2 hours, aliquots of 10 μL removed at 0, 30, 60, 90 and 120 min. Each aliquot was combined with 50 μL 50 mM ammonium acetate pH 5.0 to quench and assayed by HPLC for deacetylation products and NAD^+. The chromatograms (260 nm) were obtained using 50 mM ammonium acetate pH 5.0 as eluant on a semi-preparative Waters C-18 column (2.0 mL/min flow rate). Peaks for ADPR and 3′-O-Acetyl-ADPR were quantified by integration. The peak for NAD^+ was collected and radiation counted.

[4] = tested on: Sir2-dependent transcriptional silencing at telomeres; test: Telomeric reporter gene silencing, serial dilution spot assay; assay type: cell-based, yeast
Description: as §1, §2
We examined the effect of isonicotinamide on the expression of reporter genes integrated at each of the chromosomal loci that are subject to Sir2-dependent transcriptional silencing. Silencing of a telomeric URA3 gene (TEL-VIIL-URA3) confers resistance to 5-fluoroorotic acid (5-FOA). […] In this strain, silencing is reduced by dispersion of the Sir proteins from the telomeres (van Leeuwen et al., 2002).

[5] = biological target: T2, Bacterial SIR2Af2 (Archaeoglobus fulgidus, UniProt O30124); test: SIR2 deacetylation assay (p53 peptide, HPLC of ADPR and 3′-O-acetyl-ADPR); assay type: biochemical, Archeaglobus fulgidus
T2 construct: made in house
T2 sequence (O30124 1-253): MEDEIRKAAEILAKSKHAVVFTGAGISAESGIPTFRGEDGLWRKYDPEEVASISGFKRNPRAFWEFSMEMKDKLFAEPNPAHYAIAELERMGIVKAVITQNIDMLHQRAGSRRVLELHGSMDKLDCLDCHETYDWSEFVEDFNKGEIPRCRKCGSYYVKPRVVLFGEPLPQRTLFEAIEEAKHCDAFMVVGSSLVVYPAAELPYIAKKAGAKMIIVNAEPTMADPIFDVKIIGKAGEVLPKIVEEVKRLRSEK
Description: as §3, with “counted. […] Plots of deacetylation rate versus nicotinamide were fit to the equations described in the text.” for “counted.”
Reactions were as above but base reactions contained 5 mM of pyrazinamide, isonicotinamide, thionicotinamide, or benzamide. Reactions were carried out (2 hours for AF2 and yeast enzymes and 3 hours for mouse enzyme) at 37° C. and quenched by addition of 80 μL 50 mM ammonium acetate pH 5.0. Product formation was quantified by HPLC. Thionicotinamide-NAD^+ was synthesized by CD38. Rates were compared with controls lacking added base.

Structure (SMILES): NC(=O)c1ccncc1 [Isonicotinamide]
- Sir2 activity at HML ([1]; HML::URA3 strains UCC3515 and UCC4574, FOA-containing medium, data not shown): increased Sir2 activity at HML
- growth phenotype of isogenic sir2Δ strain ([1]; HMR::TRP1, Trp− medium): Neither compound altered the growth phenotype
- reduction in growth on Trp− medium ([1]; HMR::TRP1, pnc1Δ strain, 25 mM isonicotinamide): 10^3 fold
- effect on base exchange ([2]; 125 μM [carbonyl-14C]nicotinamide, increasing isonicotinamide): Base exchange is inhibited
- Ki ([2]; read-out: Ki for isonicotinamide): 60 mM
- inhibition at 42000 µM [3]: 40%
- increase in colony growth on FOA-containing medium ([4]; TEL-VIIL-URA3, DOT1 strain UCC4562, 25 mM isonicotinamide): ~10 fold
- enhanced silencing of telomeric reporter (growth on FOA) ([4]; TEL-VIIL-URA3, dot1Δ strain UCC4554, 25 mM isonicotinamide): > 10^3 fold
- growth phenotype on FOA medium ([4]; TEL-VIIL-URA3, 25 mM isonicotinamide added to medium with 5 mM nicotinamide): intermediate growth phenotype
- increase in colony growth on FOA-containing medium ([4]; TEL-VR-URA3, pnc1Δ strain, 25 mM isonicotinamide): > 10^4 fold
- colony survival on non-selective medium ([4]; YPD control medium, 25 mM isonicotinamide): no effect
- silencing of ADE2 integrated at TEL-VR ([4]; data not shown): increased
- effect on telomeric reporter gene ([4]; npt1Δ strain, 25 mM isonicotinamide): enhances the expression of a telomeric reporter gene
- inhibition at 5000 µM [5]: 4%
